Experimental findings from US9139567B2, “Arylpyrazole ethers as inhibitors of leukotriene A4 hydrolase” (Boehringer Ingelheim International GmbH, priority 2011, dated 2015) are described below.

For test [1], the system named is LTB4 production in human whole blood. Briefly: LTB4 production inhibition assay in human whole blood (calcimycin-stimulated). It is filed as cell-based. The conditions noted are these: heparinized human whole blood, 15 min 37° C., calcimycin 20 μM 30 min, plasma LTB4 by HTRF. How it is done: Compounds of the invention are additionally tested in a human whole blood assay to determine their ability to inhibit the synthesis of LTB4 in a cellular system. Compounds are combined with heparinized human whole blood and incubated for 15 minutes at 37° C. Calcimycin (20 μM final, prepared in phosphate-buffered saline, pH 7.4) is then added and the mixture is incubated for another 30 minutes at 37° C. The samples are centrifuged for 5 min at low speed (1500×g) and the plasma layer is removed. Plasma LTB4 concentrations are then measured using an antibody-based homogenous time-resolved fluorescence method (CisBio, Bedford, Mass.).
On the technique in general: Time-resolved FRET reads energy transfer from a long-lived donor to a nearby acceptor.

Another test deals with T1, human LTA4 hydrolase (Homo sapiens, UniProt P09960).
T1 sequence (P09960 1-611): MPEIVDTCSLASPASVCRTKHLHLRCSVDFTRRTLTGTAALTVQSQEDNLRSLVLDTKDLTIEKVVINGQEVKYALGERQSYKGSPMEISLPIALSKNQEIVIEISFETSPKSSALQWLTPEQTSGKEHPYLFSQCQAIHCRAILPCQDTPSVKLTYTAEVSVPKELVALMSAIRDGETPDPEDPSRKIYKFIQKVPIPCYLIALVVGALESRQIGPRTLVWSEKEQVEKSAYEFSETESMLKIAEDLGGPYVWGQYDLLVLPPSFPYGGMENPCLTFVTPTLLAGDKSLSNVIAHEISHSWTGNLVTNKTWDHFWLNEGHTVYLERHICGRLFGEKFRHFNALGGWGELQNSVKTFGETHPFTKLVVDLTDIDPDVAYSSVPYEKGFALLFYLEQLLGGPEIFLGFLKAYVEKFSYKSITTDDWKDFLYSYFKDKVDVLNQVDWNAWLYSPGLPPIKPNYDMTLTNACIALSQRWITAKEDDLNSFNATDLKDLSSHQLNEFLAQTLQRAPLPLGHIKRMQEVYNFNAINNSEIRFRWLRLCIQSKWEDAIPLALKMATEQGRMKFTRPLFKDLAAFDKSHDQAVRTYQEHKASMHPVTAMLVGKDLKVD
The test is described as follows: LTA4H enzyme assay (cleavage of Arg-AMC, fluorescence). The conditions noted are these: LTA4H enzyme 1 nM, Arg-AMC substrate 50 μM, room temperature 1 h. It is filed as biochemical. Here is the method:
Compounds are assessed for the ability to interact with human LTA4 hydrolase in an enzymatic assay that measures the ability of the enzyme to cleave the peptide bond of arginyl-aminomethylcoumarin (Arg-AMC). LTA4H Enzyme (1 nM final), Arg-AMC substrate (50 μM final), and compound are combined in a reaction buffer (50 mM Tris-HCl (pH 7.5), 100 mM KCl, 0.5% bovine serum albumin) at room temperature for 1 h. The formation of product is assessed by measuring the fluorescence of aminomethylcoumarin product (excitation wavelength 380 nm/emission wavelength 460 nm).

For the compound `O=C1CC[C@H](COc2ccc(Oc3ccc(-c4ccn[nH]4)cc3)cc2)N1` [Example 1, (5R)-5-({4-[4-(1H-pyrazol-5-yl)phenoxy]phenoxy}methyl)pyrrolidin-2-one], the IC50 (commonly the midpoint of a concentration-inhibition curve) in test [1] was found to be 0.246 µM; at human LTA4 hydrolase, 0.0002 µM.
Taken in the same sequence, the figures for `c1cnn(CCCOc2ccc(Oc3ccc(-c4ccn[nH]4)cc3)cc2)c1` [Example 50, 1-(3-{4-[4-(1H-pyrazol-5-yl)phenoxy]phenoxy}propyl)-1H-pyrazole] were 2.11 µM and 0.0012 µM.
Taken in the same sequence, the figures for `O=C1CC[C@H](Oc2ccc(Oc3ccc(-c4cc[nH]n4)cc3)cc2)CN1` [Example 13, (5S)-5-{4-[4-(1H-pyrazol-3-yl)phenoxy]phenoxy}piperidin-2-one] were 0.214 µM and 0.0005 µM.
Taken in the same sequence, the figures for `c1cc(-c2ccc(Oc3ccc(OCc4cc[nH]n4)cc3)cc2)[nH]n1` [Example 46, 3-({4-[4-(1H-pyrazol-5-yl)phenoxy]phenoxy}methyl)-1H-pyrazole] were 4.9 µM and 0.0061 µM.
Turning to `O=C1CC[C@@H](COc2ccc(Oc3ccc(-c4ccn[nH]4)cn3)cc2)N1` [Example 3, (5S)-5-[(4-{[5-(1H-pyrazol-5-yl)pyridin-2-yl]oxy}phenoxy)methyl]pyrrolidin-2-one], the IC50 in test [1] stood at 0.142 µM; against human LTA4 hydrolase, 0.0002 µM.
Taken in the same sequence, the figures for `c1cc(-c2ccc(Oc3ccc(OCC4CCOC4)cc3)cc2)[nH]n1` (centres unmarked) [Example 92, 5-{4-[4-(tetrahydrofuran-3-ylmethoxy)phenoxy]phenyl}-1H-pyrazole] were 1.2 µM and 0.0033 µM.
For the compound `O=C1CC[C@@H](COc2ccc(Oc3ccc(-c4ccn[nH]4)cc3)cc2)O1` [Example 86, (5S)-5-({4-[4-(1H-pyrazol-5-yl)phenoxy]phenoxy}methyl)dihydrofuran-2(3H)-one], the 50% inhibitory concentration (IC50) worked out at 4.5 µM in test [1] and 0.0008 µM against human LTA4 hydrolase.
The matching figures for `c1cc(-c2ccc(Oc3ccc(OCc4cnc5[nH]ccc5c4)cc3)cc2)[nH]n1` [Example 39, 5-({4-[4-(1H-pyrazol-5-yl)phenoxy]phenoxy}methyl)-1H-pyrrolo[2,3-b]pyridine]: at least 5 µM and 0.0076 µM.
Taken in the same sequence, the figures for `CC(Cc1ccccc1)Oc1ccc(Oc2ccc(-c3ccn[nH]3)cc2)cc1` (centres unmarked) [Example 31, 5-{4-[4-(1-methyl-2-phenylethoxy)phenoxy]phenyl}-1H-pyrazole] were at least 5 µM and 0.9 µM.
`c1cncc(COc2ccc(Oc3ccc(-c4ccn[nH]4)cc3)cc2)c1` [Example 34, 3-({4-[4-(1H-pyrazol-5-yl)phenoxy]phenoxy}methyl)pyridine]: the IC50 in test [1] came to 2.54 µM; at human LTA4 hydrolase, 0.0015 µM.
`c1ccc(COc2ccc(Oc3ccc(-c4ccn[nH]4)cc3)cc2)cc1` [Example 62, 5-{4-[4-(benzyloxy)phenoxy]phenyl}-1H-pyrazole]: the values for the IC50 (in test [1]; against human LTA4 hydrolase) were at least 5 µM and 0.142 µM, respectively.
As to `Cc1nnsc1COc1ccc(Oc2ccc(-c3ccn[nH]3)cc2)cc1` [Example 77, 4-Methyl-5-{4-[4-(2H-pyrazol-3-yl)-phenoxy]-phenoxymethyl}-[1,2,3]thiadiazole], the IC50 in test [1] turned out to be 0.492 µM; on human LTA4 hydrolase, 0.001 µM.
As for `c1cc(-c2ccc(Oc3ccc(OC4CCOCC4)cc3)cc2)[nH]n1` [Example 89, 5-{4-[4-(tetrahydro-2H-pyran-4-yloxy)phenoxy]phenyl}-1H-pyrazole], the IC50 in test [1] worked out at 1.77 µM; at human LTA4 hydrolase it was 0.0048 µM.
As to `c1cc(-c2ccc(Oc3ccc(OCCc4cnoc4)cc3)cc2)[nH]n1` [Example 72, 4-(2-{4-[4-(1H-pyrazol-5-yl)phenoxy]phenoxy}ethyl)isoxazole], the IC50 in test [1] was found to be 2.55 µM; on human LTA4 hydrolase, 0.0061 µM.
For `O=C1CCCN1CCCOc1ccc(Oc2ccc(-c3ccn[nH]3)cc2)cc1` [Example 23, 1-(3-{4-[4-(1H-pyrazol-5-yl)phenoxy]phenoxy}propyl)pyrrolidin-2-one], the figures for the IC50 (in test [1]; against human LTA4 hydrolase) were 0.529 µM and 0.0007 µM, respectively.
The matching figures for `O=C1CC[C@H](COc2ccc(Oc3ccc(-c4ccn[nH]4)cc3)cc2)O1` [Example 85, (5R)-5-({4-[4-(1H-pyrazol-5-yl)phenoxy]phenoxy}methyl)dihydrofuran-2(3H)-one]: at least 5 µM and 0.0008 µM.
Taken in the same sequence, the figures for `c1cnn(-c2ccc(COc3ccc(Oc4ccc(-c5ccn[nH]5)cc4)cc3)cn2)c1` [Example 80, 2-(1H-pyrazol-1-yl)-5-({4-[4-(1H-pyrazol-5-yl)phenoxy]phenoxy}methyl)pyridine] were 1.65 µM and 0.0019 µM.
Taken in the same sequence, the figures for `O=C1CC[C@H](Oc2ccc(Oc3ccc(-c4ccn[nH]4)cc3)cn2)CN1` [Example 6, (5S)-5-({5-[4-(1H-pyrazol-5-yl)phenoxy]pyridin-2-yl}oxy)piperidin-2-one] were 1.08 µM and 0.0035 µM.
`c1cc(-c2ccc(Oc3ccc(OCCC4CCCCO4)cc3)cc2)[nH]n1` (centres unmarked) [Example 93, 5-(4-{4-[2-(tetrahydro-2H-pyran-2-yl)ethoxy]phenoxy]phenyl)-1H-pyrazole]: the IC50 was found to be 4.6 µM in test [1] and 0.0269 µM at human LTA4 hydrolase.
For `O=C1CCCN1CCOc1ccc(Oc2ccc(-c3ccn[nH]3)cc2)cc1` [Example 21, 1-(2-{4-[4-(lH-pyrazol-5-yl)phenoxy]phenoxy}ethyl)pyrrolidin-2-one], the IC50 amounted to 0.813 µM in test [1] and 0.0007 µM against human LTA4 hydrolase.
On to `c1cc(-c2ccc(Oc3ccc(OCc4cocn4)cc3)cc2)[nH]n1` [Example 54, 4-({4-[4-(1H-pyrazol-5-yl)phenoxy]phenoxy}methyl)-1,3-oxazole], for which the figures for the IC50 (in test [1]; at human LTA4 hydrolase) were at least 5 µM and 0.0042 µM, respectively.
Taken in the same sequence, the figures for `O=C1OCC[C@H]1Oc1ccc(Oc2ccc(-c3ccn[nH]3)cc2)cc1` [Example 88, (3R)-3-{4-[4-(1H-pyrazol-5-yl)phenoxy]phenoxy}dihydrofuran-2(3H)-one] were at least 5 µM and 0.0164 µM.
In the case of `O=C1N[C@H](COc2ccc(Oc3ccc(-c4ccn[nH]4)cc3)cc2)CO1` [Example 12, (4R)-4-({4-[4-(1H-pyrazol-5-yl)phenoxy]phenoxy}methyl)-1,3-oxazolidin-2-one], the IC50 in test [1] worked out at 0.104 µM; on human LTA4 hydrolase, 0.0001 µM.
The matching figures for `c1cc(-c2ccc(Oc3ccc(OCc4cnc[nH]4)cc3)cc2)[nH]n1` [Example 27, 5-{4-[4-(1H-imidazol-5-ylmethoxy)phenoxy]phenyl}-1H-pyrazole]: 1.84 µM and 0.0022 µM.
Taken in the same sequence, the figures for `CC(CCOc1ccc(Oc2ccc(-c3ccn[nH]3)cc2)cc1)n1cccn1` (centres unmarked) [Example 51, 1-(1-methyl-3-{4-[4-(1H-pyrazol-5-yl)phenoxy]phenoxy}propyl)-1H-pyrazole] were 3.11 µM and 0.004 µM.
Regarding `CC(COc1ccc(Oc2ccc(-c3ccn[nH]3)cc2)cc1)c1ccccc1` (centres unmarked) [Example 32, 5-{4-[4-(2-phenylpropoxy)phenoxy]phenyl}-1H-pyrazole], the figures for the concentration for half-maximal inhibition (IC50) (in test [1]; on human LTA4 hydrolase) were at least 5 µM and 0.36 µM, respectively.
The matching figures for `c1cnc2c(c1)CCC2Oc1ccc(Oc2ccc(-c3ccn[nH]3)cc2)cc1` (centres unmarked) [Example 47, 7-{4-[4-(1H-pyrazol-5-yl)phenoxy]phenoxy}-6,7-dihydro-5H-cyclopenta[b]pyridine]: at least 5 µM and 0.0824 µM.
As to `c1cc(-c2ccc(Oc3ccc(OC4CCCOC4)cc3)cc2)[nH]n1` (centres unmarked) [Example 94, 5-{4-[4-(tetrahydro-2H-pyran-3-yloxy)phenoxy]phenyl}-1H-pyrazole], the IC50 was 2 µM in test [1] and 0.0141 µM on human LTA4 hydrolase.
Turning to `c1cncc(CCOc2ccc(Oc3ccc(-c4ccn[nH]4)cc3)cc2)c1` [Example 29, 3-(2-{4-[4-(1H-pyrazol-5-yl)phenoxy]phenoxy}ethyl)pyridine], the IC50 in test [1] is 2.28 µM; against human LTA4 hydrolase it was 0.0049 µM.
Taken in the same sequence, the figures for `O=C1NCC(COc2ccc(Oc3ccc(-c4ccn[nH]4)cc3)cc2)O1` (centres unmarked) [Example 11, 5-({4-[4-(1H-pyrazol-5-yl)phenoxy]phenoxy}methyl)-1,3-oxazolidin-2-one] were 0.573 µM and 0.0013 µM.
Taken in the same sequence, the figures for `c1cc(CCOc2ccc(Oc3ccc(-c4ccn[nH]4)cc3)cc2)ccn1` [Example 40, 4-(2-{4-[4-(1H-pyrazol-5-yl)phenoxy]phenoxy}ethyl)pyridine] were 3.12 µM and 0.0032 µM.
